Molecules are shown by their SMILES.

As a reminder, the IC50 is the point on the concentration scale where inhibition reaches its midpoint.

T1 sequence (O00329 whole entry): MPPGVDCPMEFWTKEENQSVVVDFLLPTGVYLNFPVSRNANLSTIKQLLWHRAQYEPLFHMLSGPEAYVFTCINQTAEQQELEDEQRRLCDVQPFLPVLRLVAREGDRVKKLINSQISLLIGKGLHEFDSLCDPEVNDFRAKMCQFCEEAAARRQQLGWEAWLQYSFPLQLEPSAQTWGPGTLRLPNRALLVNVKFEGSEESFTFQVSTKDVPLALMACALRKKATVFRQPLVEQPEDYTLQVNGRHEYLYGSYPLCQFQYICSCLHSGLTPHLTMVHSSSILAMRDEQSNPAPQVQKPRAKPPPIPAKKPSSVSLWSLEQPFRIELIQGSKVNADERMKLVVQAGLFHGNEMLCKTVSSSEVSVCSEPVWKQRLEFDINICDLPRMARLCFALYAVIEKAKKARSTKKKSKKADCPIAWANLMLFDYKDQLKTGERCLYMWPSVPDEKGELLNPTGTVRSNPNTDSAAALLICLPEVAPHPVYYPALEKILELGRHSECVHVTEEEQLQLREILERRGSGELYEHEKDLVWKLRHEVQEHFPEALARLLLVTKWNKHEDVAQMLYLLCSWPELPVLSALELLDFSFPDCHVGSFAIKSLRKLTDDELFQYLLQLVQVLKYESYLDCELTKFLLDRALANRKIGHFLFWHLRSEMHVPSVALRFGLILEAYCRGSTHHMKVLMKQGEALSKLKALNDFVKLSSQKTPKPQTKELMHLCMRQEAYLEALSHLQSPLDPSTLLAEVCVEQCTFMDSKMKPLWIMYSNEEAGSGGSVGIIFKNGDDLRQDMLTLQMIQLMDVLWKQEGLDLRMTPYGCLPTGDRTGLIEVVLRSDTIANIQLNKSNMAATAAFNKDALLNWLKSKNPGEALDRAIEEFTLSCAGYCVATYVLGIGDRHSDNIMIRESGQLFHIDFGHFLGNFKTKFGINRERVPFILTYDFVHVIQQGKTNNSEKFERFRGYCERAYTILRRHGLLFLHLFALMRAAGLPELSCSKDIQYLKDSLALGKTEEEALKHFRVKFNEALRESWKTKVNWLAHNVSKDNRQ
T1 sequence (P27986 whole entry partner): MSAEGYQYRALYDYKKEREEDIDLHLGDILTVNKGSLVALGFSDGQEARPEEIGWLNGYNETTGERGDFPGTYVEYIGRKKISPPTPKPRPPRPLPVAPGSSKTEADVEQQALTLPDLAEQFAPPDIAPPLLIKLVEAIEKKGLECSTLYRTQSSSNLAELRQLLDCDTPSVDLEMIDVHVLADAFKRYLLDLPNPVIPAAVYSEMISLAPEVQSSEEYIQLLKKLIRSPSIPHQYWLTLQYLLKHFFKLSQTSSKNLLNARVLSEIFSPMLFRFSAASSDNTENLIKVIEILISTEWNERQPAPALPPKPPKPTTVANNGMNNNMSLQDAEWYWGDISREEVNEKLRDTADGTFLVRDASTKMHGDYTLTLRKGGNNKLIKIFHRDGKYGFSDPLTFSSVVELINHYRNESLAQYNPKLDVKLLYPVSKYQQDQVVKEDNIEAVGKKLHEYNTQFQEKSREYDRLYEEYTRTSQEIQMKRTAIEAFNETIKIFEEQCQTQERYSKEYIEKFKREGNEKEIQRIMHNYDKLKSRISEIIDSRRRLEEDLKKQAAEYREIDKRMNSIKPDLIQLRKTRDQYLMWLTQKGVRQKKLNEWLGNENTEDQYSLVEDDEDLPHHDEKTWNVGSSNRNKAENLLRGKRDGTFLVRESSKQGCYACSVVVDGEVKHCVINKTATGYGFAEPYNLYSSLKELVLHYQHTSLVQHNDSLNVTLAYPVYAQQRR

For one assay, the system named is production of CD69 by B lymphocytes in human whole blood activated by crosslinking surface IgM. Briefly: CD69 human whole blood assay (Example 903), FACS. Particulars: B lymphocytes activated with goat F(ab')2 anti-human IgM, read-out: CD69 Hu Blood FACS IC50. The class given is cell-based. An excerpt:
There is good evidence that B-cells play a key role in the pathogenesis of autoimmune and/or inflammatory disease. Protein-based therapeutics that deplete B cells such as Rituxan are effective against autoantibody-driven inflammatory diseases such as rheumatoid arthritis (Rastetter et al. (2004) Annu Rev Med 55:477). CD69 is the early activation marker in leukocytes including T cells, thymocytes, B cells, NK cells, neutrophils, and eosinophils. The CD69 human whole blood assay (Example 903) determines the ability of compounds to inhibit the production of CD69 by B lymphocytes in human whole blood activated by crosslinking surface IgM with goat F(ab′)2 anti-human IgM.
`OCC(Nc1ncnc2nc[nH]c12)c1nc2ccc(F)cc2n1-c1ccccc1` (centres unmarked) [Example 172, 2-(6-Fluoro-1-phenyl-1H-benzoimidazol-2-yl)-2-(7H-purin-6-ylamino)-ethanol]: the IC50 stood at 175 nM.

Still in this assay, the particulars now being: Homo sapiens, Lymphocyte, B lymphocytes activated with goat F(ab')2 anti-human IgM, read-out: CD69 Hu Blood FACS IC50.
Regarding `N#Cc1c(N)ncnc1NCc1nc2ccc(F)cc2n1-c1ccccc1` [Example 371, 4-amino-6-((6-fluoro-1-phenyl-1H-benzo[d]imidazol-2-yl)methylamino)pyrimidine-5-carbonitrile], the IC50 was determined as 514 nM.
On the same count and under the same terms, for `C[C@H](Nc1ncnc2[nH]cnc12)c1nc2ccc(F)c(C(=O)N3CCOCC3)c2n1C1CC1` [Example 389, [3-cyclopropyl-5-fluoro-2-[(1S)-1-(9H-purin-6-ylamino)ethyl]benzimidazol-4-yl]-morpholino-methanone] the value was 11.9 nM.
As to `CC(Nc1ncnc2[nH]cnc12)c1nc2ccc(F)c(Cl)c2n1-c1ccccc1` (centres unmarked) [Example 179, [1-(7-Chloro-6-fluoro-1-phenyl-1H-benzoimidazol-2-yl)-ethyl]-(9H-purin-6-yl)-amine], the IC50 is 146 nM.
Same read-out and setting: for `CC[C@H](Nc1ncnc(N)c1C#N)c1nc2ccc(F)cc2n1-c1cncc(F)c1` [Example 350, 4-Amino-6-{(S)-1-[6-fluoro-1-(5-fluoro-pyridin-3-yl)-1H-benzoimidazol-2-yl]-propylamino}-pyrimidine-5-carbonitrile] the value was 83.9 nM.
On the same count and under the same terms, the result for `C[C@H](Nc1ncnc(N)c1C#N)c1nc2ccc(F)c(Br)c2n1-c1cccnc1` [Example 301, 4-Amino-6-[(S)-1-(7-bromo-6-fluoro-1-pyridin-3-yl-1H-benzoimidazol-2-yl)-ethylamino]-pyrimidine-5-carbonitrile] reads 34.1 nM; that for `C[C@H](Nc1ncnc2[nH]cnc12)c1nc2ccc(F)cc2n1[C@@H]1CCCN(CCO)C1` [Example 256, 2-((R)-3-{6-Fluoro-2-[(S)-1-(9H-purin-6-ylamino)-ethyl]-benzoimidazol-1-yl}-piperidin-1-yl)-ethanol], 68.3 nM; that for `C[C@H](Nc1ncnc(N)c1C#N)c1nc2ccc(F)c(C#N)c2n1-c1cncc(F)c1` [Example 347, 2-[(S)-1-(6-Amino-5-cyano-pyrimidin-4-ylamino)-ethyl]-5-fluoro-3-(5-fluoro-pyridin-3-yl)-3H-benzoimidazole-4-carbonitrile], 158 nM.
The same measure, in the same setting: for `CC(Nc1ncnc(N)c1C#N)c1nc2cccnc2n1-c1ccccc1` (centres unmarked) [Example 302, 4-Amino-6-[1-(3-phenyl-3H-imidazo[4,5-b]pyridin-2-yl)-ethylamino]-pyrimidine-5-carbonitrile] the value was 189 nM; for `C[C@H](Nc1ncnc(N)c1C#N)c1nc2ccc(F)c(C#N)c2n1-c1ccccc1` [Example 330, 2-[(S)-1-(6-Amino-5-cyano-pyrimidin-4-ylamino)-ethyl]-5-fluoro-3-phenyl-3H-benzoimidazole-4-carbonitrile], 12.9 nM.
Regarding `C[C@H](Nc1ncnc(N)c1C#N)c1nc2ccc(F)c(CC#N)c2n1-c1ccccc1` [Example 345, 4-Amino-6-[(S)-1-(7-cyanomethyl-6-fluoro-1-phenyl-1H-benzoimidazol-2-yl)-ethylamino]-pyrimidine-5-carbonitrile], the IC50 is 2.91 nM.
The same measure, in the same setting: for `C[C@H](Nc1ncnc2[nH]cnc12)c1nc2ccc(F)cc2n1-c1ccncn1` [Example 332, [(S)-1-(6-Fluoro-1-pyrimidin-4-yl-1H-benzoimidazol-2-yl)-ethyl]-(9H-purin-6-yl)-amine] the value was 81.7 nM; for `Cc1nc(N)nc(N[C@@H](C)c2nc3ccc(F)cc3n2-c2ccccc2)n1` [Example 258, N—[(S)-1-(6-Fluoro-1-phenyl-1H-benzoimidazol-2-yl)-ethyl]-6-methyl-[1,3,5]triazine-2,4-diamine], 141 nM; for `OCC(Nc1ncnc2nc[nH]c12)c1nc2ccc(F)cc2n1-c1ccccc1` (centres unmarked) [Example 224, 2-(6-Fluoro-1-phenyl-1H-benzoimidazol-2-yl)-2-(7H-purin-6-ylamino)-ethanol], 129 nM.
On the same count and under the same terms, for `CC(C)n1c([C@H](C)Nc2ncnc(N)c2C#N)nc2ccc(F)c(-c3ccccn3)c21` [Example 408, 4-amino-6-[[(1S)-1-[6-fluoro-1-isopropyl-7-(2-pyridyl)benzimidazol-2-yl]ethyl]amino]pyrimidine-5-carbonitrile] the value was 163 nM; for `C[C@H](Nc1ncnc2[nH]cnc12)c1nc2ccc(Cl)cc2n1-c1ccccc1` [Example 173, [(S)-1-(6-Chloro-1-phenyl-1H-benzoimidazol-2-yl)-ethyl]-(9H-Aurin-6-yl)-amine], 301 nM.
Take `C[C@H](Nc1ncnc(N)c1C#N)c1nc2ccc(F)c(C#N)c2n1-c1ccccn1` [Example 291, 2-[(S)-1-(6-Amino-5-cyano-pyrimidin-4-ylamino)-ethyl]-5-fluoro-3-pyridin-2-yl-3H-benzoimidazole-4-carbonitrile]: the 50% inhibitory concentration (IC50) came to 97.2 nM.
On the same count and under the same terms, the result for `C[C@H](Nc1ncnc(N)c1C#N)c1nc2ccc(F)cc2n1-c1ccncc1` [Example 354, 4-Amino-6-[(S)-1-(6-fluoro-1-pyridin-4-yl-1H-benzoimidazol-2-yl)-ethylamino]-pyrimidine-5-carbonitrile] reads 48.4 nM; that for `CC(Nc1ncnc2[nH]cnc12)c1nc2ccc(F)c(C(=O)N(C)C)c2n1-c1ccccc1` (centres unmarked) [Example 204, 5-Fluoro-3-phenyl-2-[1-(9H-purin-6-ylamino)-ethyl]-3H-benzoimidazole-4-carboxylic acid dimethylamide], 67.5 nM; that for `C[C@H](Nc1ncnc2[nH]cnc12)c1nc2ccc(F)c(C#N)c2n1-c1cccnc1` [Example 281, 5-Fluoro-2-[(S)-1-(9H-purin-6-ylamino)-ethyl]-3-pyridin-3-yl-3H-benzoimidazole-4-carbonitrile], 110 nM.
The same measure, in the same setting: for `CC(Nc1ncnc2[nH]cnc12)c1nc2ccc(F)c(C(=O)N3CCN(C)CC3)c2n1-c1ccccc1` (centres unmarked) [Example 202, {5-Fluoro-3-phenyl-2-[1-(9H-purin-6-ylamino)-ethyl]-3H-benzoimidazol-4-yl}-(4-methyl-piperazin-1-yl)-methanone] the value was 14.1 nM; for `Cc1nc(N)nc(N[C@@H](C)c2nc3ccc(F)cc3n2-c2ccccn2)c1C#N` [Example 333, 2-Amino-4-[(S)-1-(6-fluoro-1-pyridin-2-yl-1H-benzoimidazol-2-yl)-ethylamino]-6-methyl-pyrimidine-5-carbonitrile], 4.92 nM; for `C[C@H](Nc1ncnc2[nH]cnc12)c1nc2ccc(F)cc2n1[C@H]1CCCN(CCO)C1` [Example 278, 2-((S)-3-{6-Fluoro-2-[(S)-1-(9H-purin-6-ylamino)-ethyl]-benzoimidazol-1-yl}-piperidin-1-yl)-ethanol], 16.6 nM.
Same read-out and setting: the result for `CC(Nc1ncnc2[nH]cnc12)c1nc2ccc(F)cc2n1-c1ccc(C#N)cc1` (centres unmarked) [Example 227, 4-{6-Fluoro-2-[1-(9H-purin-6-ylamino)-ethyl]-benzoimidazol-1-yl}-benzonitrile] reads 78.3 nM.

The next assay addresses T1, p110 delta (Homo sapiens, UniProt O00329).
T1 construct: purchased Upstate Group, Millipore; Dundee, UK
As to the kind of experiment: PI3K isoform inhibition assay (fluorescence polarization), p110 delta. In kind it is biochemical. Particulars: p110 delta binding IC50, selected compounds from Table 1. Here is the method:
PI3K enzymatic activity was assayed by measuring the amount of product phosphatidylinositol 3,4,5-phosphate (PIP3) formed from substrate 4,5 phosphatidylinositol 4,5-phosphate (PIP2) using a fluorescence polarization displacement assay. The decrease in fluorescence polarization of a fluorescent PIP3 probe is measured as it is displaced from a PIP3-binding protein GRP-1detector by PI3K-catalyzed product. Assays were conducted in 384-well black Proxiplates in the presence of 10 mM Tris (pH 7.5), 50 mM NaCl, 4 mM MgCl2, 5% glycerol, 25 μM ATP, 10 μM PIP2 (Echelon Biosciences), 0.05% 3-[(3-cholamidopropyl)dimethylammonio]-1-propanesulfonate, 1 mM dithiothreitol, and 2% DMSO. The kinase reactions were initiated by the addition of 40 ng/mL p110α/p85α, 300 ng/mL p110β/p85α, 40 ng/mL p110γ, or 40 ng/mL p110δ/p85α (Upstate Group, Millipore; Dundee, UK), and 10 μM PIP2 (Echelon Biosciences) to the wells. The reactions were stopped at timepoints that yielded a fixed change in fluorescence polarization consistent with initial rate conditions (typically 30 minutes), by the addition of 12.5 mM EDTA, 100 nM GRP-1 detector, and 5 nM tetramethylrhodamine-labeled PIP3 (TAMRA-PIP3; Echelon Biosciences). After 60 minutes of incubation at room temperature to allow equilibration of labeled and unlabeled PIP3 binding, the parallel and perpendicular components of the fluorescence emissions from each sample were measured at an excitation wavelength of 530 nm and an emission wavelength of 590 nm using an Envision fluorescent plate reader with a rhodamine filter (PerkinElmer Life and Analytical Sciences; Wellesley, Mass.). The assay is capable of detecting 0.1-2.0 μM PIP3 product. The IC50 values were obtained by fitting the dose-dependent inhibition data to a 4-parameter equation using Assay Explorer software (MDL, San Ramon, Calif.). […]
Recombinant PI3K p110 isoforms alpha, beta, and delta may be prepared and purified according to US 2008/0275067 from recombinant PI3K heterodimeric complexes consisting of a p110 catalytic subunit and a p85 regulatory subunit overexpressed using the BAC-TO-BAC® HT baculovirus expression system (GIBCO/BRL), and then purified for use in biochemical assays. The four Class I PI 3-kinases are cloned into baculovirus vectors as follows:
p110 delta: A FLAG™-tagged (Eastman Kodak Co., U.S. Pat. No. 4,703,004; U.S. Pat. No. 4,782,137; U.S. Pat. No. 4,851,341) version of human p110.delta (Chantry et al., J. Biol. Chem. (1997) 272:19236-41) is subcloned using standard recombinant DNA techniques into the BamHI-XbaI site of the insect cell expression vector pFastbac HTb (Life Technologies, Gaithersburg, Md.), such that the clone is in frame with the His tag of the vector.
In general terms: Fluorescence polarisation rises when a labelled molecule tumbles more slowly, as on binding a larger partner.
On to `Cc1nn(Cc2nc3ccccc3n2-c2ccccc2)c2ncnc(N)c12` [Example 142, 3-methyl-1-((1-phenyl-1H-benzo[d]imidazol-2-yl)methyl)-1H-pyrazolo[3,4-d]pyrimidin-4-amine], for which the IC50 turned out to be 278 nM.
Same read-out and setting: the result for `Nc1ncnc2c1ccn2Cc1nc2ccccc2n1-c1ccccc1` [Example 139, 7-((1-phenyl-1H-benzo[d]imidazol-2-yl)methyl)-7H-pyrrolo[2,3-d]pyrimidin-4-amine] reads 302 nM.

The record behind these values is patent publication US8653089B2, “Heterocyclic compounds and methods of use” (F. Hoffmann-La Roche AG, priority 2011, dated 2014).
